From patent US20230174556A1, “COMPOUNDS AS PROTEIN KINASE INHIBITORS” (Fochon Biosciences, Ltd., priority 2020, published 2023)

These compounds were tested on OCI-LY10 (PI3Kδ dependent) cells (assay: OCI-LY10 cell proliferation assay (MTS)). Settings: Homo sapiens, OCI-Ly10, 72 h, inhibition of OCI-LY10 cells proliferation, 72 h incubation, MTS readout at 490 nm.
Format: cell-based
Description: MTS testing kit was purchased from Promega (Madison, WI, USA). The RPMI-1640, Fetal bovine serum and Penicillin-Streptomycin were purchased from BI (Biological Industries, Beit Haemek, Israel). Dimethyl sulfoxide (DMSO) was purchased from Sigma (St. Louis., MO, USA). OCI-LY10 cells were cultured in RPMI1640 supplemented with Penicillin-Streptomycin and 10% FBS.
To investigate whether a compound is able to inhibit the activity of PI3Kδ in cells, a mechanism-based assay using OCI-LY10 (PI3Kδ dependent) cells was developed. In this assay, inhibition of PI3Kδ was detected by the inhibition of OCI-LY10 cells proliferation. Cells were plated into 96-well plates at a density of 10000 cells/well. Plates were incubated at 37° C., with 5 % CO2 for 4 h. Compounds were serially diluted and added to the plates with the final compound concentrations as 10000, 3333.3, 1111.1, […], 123.5, 41.2, 13.7, 4.6 and 1.5 nM. Plates were incubated at 37° C., with 5 % CO2 for 72 h. 20 µl MTS was added into each well and the plates were incubated at 37° C., with 5 % CO2 for exactly 2 h. The absorbance was measured by a microplate reader at 490 nm. IC50 was calculated using GraphPad Prism 5.0 software.

| Compound | IC50 |
| --- | --- |
| Cc1csc2nc([C@H](C)n3nc(-c4cnc(OC(C)C)c(C#N)c4)c4c(N)ncnc43)c(-c3cccc(F)c3)c(=O)n12 [Example 100] | 0.001 µM |
| COc1ncc(-c2nn([C@@H](C)c3cc4scc(Cl)n4c(=O)c3-c3cccc(F)c3)c3ncnc(N)c23)cn1 [Example 104, (S)-7-(1-(4-amino-3-(2-methoxypyrimidin-5-yl)-1H-pyrazolo[3,4-d]pyrimidin-1-yl)ethyl)-3-chloro-6-(3-fluorophenyl)-5H-thiazolo[3,2-a]pyridin-5-one] | 0.064 µM |

Same assay, conditions: inhibition of OCI-LY10 cells proliferation, 72 h incubation, MTS readout at 490 nm

| Compound | IC50 |
| --- | --- |
| Cc1csc2cc([C@H](C)n3nc(-c4cnc(OC(C)C)nc4)c4c(N)ncnc43)c(-c3cccc(F)c3)c(=O)n12 [Example 89, (S)-7-(1-(4-amino-3-(2-isopropoxypyrimidin-5-yl)-1H-pyrazolo[3,4-d]pyrimidin-1-yl)ethyl)-6-(3-fluorophenyl)-3-methyl-5H-thiazolo[3,2-α]pyridin-5-one] | 0.073 µM |
| CC(C)Oc1ncc(-c2nn([C@@H](C)c3cc4scc(Cl)n4c(=O)c3-c3ccccc3)c3ncnc(N)c23)cn1 [Example 90, (S)-7-(1-(4-amino-3-(2-isopropoxypyrimidin-5-yl)-1H-pyrazolo[3,4-d]pyrimidin-1-yl)ethyl)-3-chloro-6-phenyl-5H-thiazolo[3,2-α]pyridin-5-one] | 0.007 µM |
| CC(C)Oc1ncc(-c2nn([C@@H](C)c3cc4scc(Cl)n4c(=O)c3-c3ccccc3)c3ncnc(N)c23)cc1F [Example 94, (S)-7-(1-(4-amino-3-(5-fluoro-6-isopropoxypyridin-3-yl)-1H-pyrazolo[3,4-d]pyrimidin-1-yl)ethyl)-3-chloro-6-phenyl-5H-thiazolo[3,2-α]pyridin-5-one] | 0.03 µM |
| Cc1csc2cc([C@H](C)n3nc(-c4cnc(OC(C)C)c(C#N)c4)c4c(N)ncnc43)c(-c3ccccc3)c(=O)n12 [Example 96, (S)-5-(4-amino-1-(1-(3-methyl-5-oxo-6-phenyl-5H-thiazolo[3,2-α]pyridin-7-yl)ethyl)-1H-pyrazolo[3,4-d]pyrimidin-3-yl)-2-isopropoxynicotinonitrile] | 0.021 µM |
| Cc1csc2cc([C@H](C)n3nc(-c4cnc(OC(C)C)c(C#N)c4)c4c(N)ncnc43)c(-c3cccc(F)c3)c(=O)n12 [Example 97, (S)-5-(4-amino-1-(1-(6-(3-fluoropheny 1)-3-methyl-5-oxo-5H-thiazolo[3,2-α]pyridin-7-yl)ethyl)-1H-pyrazolo[3,4-d]pyrimidin-3-yl)-2-isopropoxynicotinoni trile] | 0.044 µM |
| CC(C)Oc1ncc(-c2nn([C@@H](C)c3cc4scc(Cl)n4c(=O)c3-c3ccccc3)c3ncnc(N)c23)cc1C#N [Example 98, (S)-5-(4-amino-1-(1-(3-chloro-5-oxo-6-phenyl-5H-thiazolo[3,2-α]pyridin-7-y 1)ethyl)-1H-pyrazolo[3,4-d]pyrimidin-3-yl)-2-isopropoxynicotinonitrile] | 0.008 µM |
| CC(C)Oc1ncc(-c2nn([C@@H](C)c3cc4scc(Cl)n4c(=O)c3-c3cccc(F)c3)c3ncnc(N)c23)cc1C#N [Example 99, (S)-5-(4-amino-1-(1-(3-chloro-6-(3-fluorophenyl)-5-oxo-5H-thiazolo[3,2-α]pyridin-7-yl)ethyl)-1H-pyrazolo[3,4-d]pyrimidin-3-yl)-2-isopropoxynicotinoni trile] | 0.008 µM |
| Cc1csc2nc([C@H](C)n3nc(-c4ccc(OC(C)C)c(C#N)c4)c4c(N)ncnc43)c(-c3cccc(F)c3)c(=O)n12 [Example 101, (S)-5-(4-amino-1-(1-(6-(3-fluoropheny 1)-3-methyl-5-oxo-5H-thiazolo[3,2-α]pyrimidin-7-yl)ethyl)-1H-pyrazolo[3,4-d]pyrimidin-3-yl)-2-isopropoxybenzon itrile] | 0.018 µM |
| Cc1csc2nc([C@H](C)n3nc(-c4ccc(OC(C)C)nc4)c4c(N)ncnc43)c(-c3cccc(F)c3)c(=O)n12 [Example 102, (S)-7-(1-(4-amino-3-(6-isopropoxypyridin-3-yl)-1H-pyrazolo[3,4-d]pyrimidin-1-yl)ethyl)-6-(3-fluorophenyl)-3-methyl-5H-thiazolo[3,2-α]pyrimidin-5-one] | 0.07 µM |
| COc1ncc(-c2nn([C@@H](C)c3cc4scc(C)n4c(=O)c3-c3cccc(F)c3)c3ncnc(N)c23)cn1 [Example 103, (S)-7-(1-(4-amino-3-(2-methoxypyrimidin-5-yl)-1H-pyrazolo[3,4-d]pyrimidin-1-yl)ethyl)-6-(3-fluorophenyl)-3-met hyl-5H-thiazolo[3,2-α]pyridin-5-one] | 0.022 µM |
| Cc1csc2nc([C@H](C)n3nc(-c4cnc(OC(C)C)c(F)c4)c4c(N)ncnc43)c(-c3cccc(F)c3)c(=O)n12 [Example 105, (S)-7-(1-(4-amino-3-(5-fluoro-6-isopropoxypyridin-3-yl)-1H-pyrazolo[3,4-d]pyrimidin-1-yl)ethyl)-6-(3-fluorophenyl)-3-methyl-5H-thiazolo[3,2-α]pyrimidin-5-one] | 0.07 µM |
| Cc1csc2nc([C@H](C)n3nc(-c4cnc(OC(C)C)c(C#N)c4)c4c(N)ncnc43)c(-c3cccc(F)c3)c(=O)n12 [Example 106, (S)-5-(4-amino-1-(1-(6-(3-fluoropheny 1)-3-methyl-5-oxo-5H-thiazolo[3,2-α]pyrimidin-7-yl)ethyl)-1H-pyrazolo[3,4-d]pyrimidin-3-yl)-2-isopropoxynicotin onitrile] | 0.043 µM |
| (S)-N-(5-(4-amino-1-(1-(3-methyl-5-o xo-6-phenyl-5H-thiazolo[3,2-α]pyridin -7-yl)ethyl)-1H-pyrazolo[3,4-d]pyrimi din-3-yl)-2-methoxypyridin-3-yl)meth anesulfonamide [Example 76] | 0.001 µM |
